{
  "source": "patent US20050197338A1",
  "about": "“Substituted pyrazole urea compounds for the treatment of inflammation” (priority 2003, published 2005)",
  "data": [
    {"molecular_target": "T1, Rat IKK-2 (Rattus norvegicus, UniProt Q9QY78)", "T1 sequence (Q9QY78 1-757)": "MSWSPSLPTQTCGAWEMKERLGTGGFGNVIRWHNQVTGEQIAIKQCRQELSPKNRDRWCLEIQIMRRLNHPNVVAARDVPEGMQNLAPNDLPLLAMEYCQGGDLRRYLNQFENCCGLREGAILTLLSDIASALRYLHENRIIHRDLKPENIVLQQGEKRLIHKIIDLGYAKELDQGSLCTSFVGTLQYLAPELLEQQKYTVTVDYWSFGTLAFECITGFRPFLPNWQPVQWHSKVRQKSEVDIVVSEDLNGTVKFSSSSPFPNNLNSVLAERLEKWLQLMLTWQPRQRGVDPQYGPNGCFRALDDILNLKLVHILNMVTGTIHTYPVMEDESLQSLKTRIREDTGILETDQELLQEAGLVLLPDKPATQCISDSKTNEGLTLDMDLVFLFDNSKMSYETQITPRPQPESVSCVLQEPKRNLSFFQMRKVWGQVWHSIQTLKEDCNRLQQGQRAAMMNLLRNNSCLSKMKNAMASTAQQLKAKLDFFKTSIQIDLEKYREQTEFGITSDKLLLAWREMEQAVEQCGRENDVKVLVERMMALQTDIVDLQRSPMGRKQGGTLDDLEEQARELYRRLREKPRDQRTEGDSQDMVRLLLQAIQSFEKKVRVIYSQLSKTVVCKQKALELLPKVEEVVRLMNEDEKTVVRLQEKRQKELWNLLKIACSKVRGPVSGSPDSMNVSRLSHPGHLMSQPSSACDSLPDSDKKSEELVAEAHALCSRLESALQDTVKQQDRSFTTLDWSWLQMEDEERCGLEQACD", "assay": "Rat IKK-2 enzyme assay", "assay_type": "biochemical", "details": "read-out: IC50 (μM) rIKK-2", "units": {"IC50": "µM"}, "values": [
      {"molecule": "NC(=O)Nc1cn(-c2cccc(-c3ccc(F)cc3O)c2)nc1C(N)=O", "note": "[Example 92, 4-[(aminocarbonyl)amino]-1-(4′-fluoro-2′-hydroxy-1,1′-biphenyl-3-yl)-1H-pyrazole-3-carboxamide]", "IC50": 2.66},
      {"molecule": "NC(=O)Nc1cn(-c2ccc(-c3ccc(F)cc3O)cc2)nc1C(N)=O", "note": "[Example 98, 4-[(aminocarbonyl)amino]-1-(4′-fluoro-2′-hydroxy-1,1′-biphenyl-4-yl)-1H-pyrazole-3-carboxamide]", "IC50": 0.668},
      {"molecule": "N#CCOc1cc(F)ccc1-c1ccc(-n2cc(NC(N)=O)c(C(N)=O)n2)cc1", "note": "[Example 173, 4-[(aminocarbonyl)amino]-1-[2′-(cyanomethoxy)-4′-fluoro-1,1′-biphenyl-4-yl]-1H-pyrazole-3-carboxamide]", "IC50": 0.105}
    ]}
  ]
}
